Results from US8440646B1 (priority 2006, dated 2013).
≈ marks a conversion by molar mass, not a printed value. Where two headings read alike, the source gives them in different places.

How the values were obtained:
S. aureus MRSA5 = assay: microbe, parasite or virus in culture; type: cell-based; settings: Staphylococcus aureus
S. aureus RN450 = assay: microbe, parasite or virus in culture; type: cell-based; settings: Staphylococcus aureus
S. pneumoniae 157E [1] = assay: microbe, parasite or virus in culture; type: cell-based; settings: Streptococcus pneumoniae
S. pneumoniae 700905 [2] = assay: microbe, parasite or virus in culture; type: cell-based; settings: Streptococcus pneumoniae
E. faecium 494 = assay: microbe, parasite or virus in culture; type: cell-based; settings: Enterococcus faecium
E. faecalis 29212 = assay: microbe, parasite or virus in culture; type: cell-based; settings: Enterococcus faecalis
S. pneumoniae 700905 [3] = test system: S. pneumoniae 700905; parameters: species or system mice; settings: mouse, in vivo
S. pneumoniae 157E [4] = test system: S. pneumoniae 157E; parameters: species or system mice; settings: mouse, in vivo
[5] = test system: Peptidoglycan synthesis of S. aureus RN450; assay: microbe, parasite or virus in culture; type: cell-based; settings: for IC50 / IC90: Staphylococcus aureus; for IC50: read-out: Peptidoglycan synthesis IC50; for IC90: read-out: Peptidoglycan synthesis IC90
[6] = test system: Protein synthesis of S. aureus RN450; assay: microbe, parasite or virus in culture; type: cell-based; settings: for IC50 / IC90: Staphylococcus aureus; for IC50: read-out: Protein synthesis IC50; for IC90: read-out: Protein synthesis IC90
S. pneumoniae 157E [7] = assay: animal or person; type: in vivo, mice; settings: for efficacy in words: mouse, in vivo
S. aureus RN4250 = assay: microbe, parasite or virus in culture; type: cell-based; settings: Staphylococcus aureus, RN4250
[8] = Streptococcus pneumoniae, 157E, in Mus musculus, po, 48 h, read-out: % survival
[9] = Streptococcus pneumoniae, 157E, in Mus musculus, sc, 48 h, read-out: % survival

Structure (SMILES)	MIC (S. aureus MRSA5) [µg/mL]	MIC (S. aureus RN450) [µg/mL]	MIC (S. pneumoniae 700905 [2]) [µg/mL]	MIC (E. faecium 494) [µg/mL]	MIC (E. faecalis 29212) [µg/mL]	MIC (S. aureus RN4250) [µg/mL]	also measured
COCCOC(=O)Nc1ccc(-c2ccc(O)c3c2C[C@H]2C[C@H]4[C@H](N(C)C)C(O)=C(C(N)=O)C(=O)[C@@]4(O)C(O)=C2C3=O)cc1 [AD]	1 (≈ 1.65 µM)	0.06 (≈ 0.0987 µM)	0.5 (≈ 0.823 µM)	–	–	–	MIC (S. pneumoniae 157E [1]): 0.13 µg/mL (≈ 0.214 µM)
CCCCN(CCCC)Cc1cc(N(C)C)c2c(c1O)C(=O)C1=C(O)[C@]3(O)C(=O)C(C(N)=O)=C(O)[C@@H](N(C)C)[C@@H]3C[C@@H]1C2 [AH]	1 (≈ 1.67 µM)	–	0.06 (≈ 0.1 µM)	0.25 (≈ 0.418 µM)	0.25 (≈ 0.418 µM)	–	–
C[C@H]1c2ccc(CN3CCC(C(F)(F)F)CC3)c(O)c2C(=O)C2=C(O)[C@]3(O)C(=O)C(C(N)=O)=C(O)[C@@H](N(C)C)C3[C@@H](O)C21 (stereo partly shown) [AN]	–	–	–	–	–	–	PD50 (S. pneumoniae 700905 [3]; iv): 1.4 mg/kg; PD50 (S. pneumoniae 700905 [3]; po): 8.4 mg/kg; PD50 (S. pneumoniae 157E [4]; iv): 0.54 mg/kg; PD50 (S. pneumoniae 157E [4]; po): 2.3 mg/kg
CO/N=C/c1cc(-c2ccc(O)c3c2C[C@H]2C[C@H]4[C@H](N(C)C)C(O)=C(C(N)=O)C(=O)[C@@]4(O)C(O)=C2C3=O)ccc1OC [A]	1 (≈ 1.73 µM)	0.25 (≈ 0.433 µM)	0.25 (≈ 0.433 µM)	1 (≈ 1.73 µM)	1 (≈ 1.73 µM)	–	effect on peptidoglycan biosynthesis in words [5]: affect peptidoglycan biosynthesis; IC50 [5]: 2.1 µg/mL (≈ 3.64 µM); IC90 [5]: 3.8 µg/mL (≈ 6.58 µM); IC50 [6]: 1.9 µg/mL (≈ 3.29 µM); IC90 [6]: 5 µg/mL (≈ 8.66 µM)
CN(C)c1cc(CNC2CCCCC2)c(O)c2c1C[C@H]1C[C@H]3[C@H](N(C)C)C(O)=C(C(N)=O)C(=O)[C@@]3(O)C(O)=C1C2=O [B]	1 (≈ 1.76 µM)	–	0.5 (≈ 0.879 µM)	1 (≈ 1.76 µM)	1 (≈ 1.76 µM)	–	responders at 5 mg/kg (S. pneumoniae 157E [7]; [8]): 40%; responders at 5 mg/kg (S. pneumoniae 157E [7]; [9]): 100%; efficacy in words (S. pneumoniae 157E [7]): efficacious
CC(CF)N(C)Cc1cc(N(C)C)c2c(c1O)C(=O)C1=C(O)[C@]3(O)C(=O)C(C(N)=O)=C(O)[C@@H](N(C)C)[C@@H]3C[C@@H]1C2 (stereo partly shown) [Compound C]	1 (≈ 1.78 µM)	–	0.25 (≈ 0.446 µM)	0.25 (≈ 0.446 µM)	0.5 (≈ 0.892 µM)	–	responders at 10 mg/kg (S. pneumoniae 157E [7]; [8]): 60%; responders at 5 mg/kg (S. pneumoniae 157E [7]; [9]): 100%; efficacy in words (S. pneumoniae 157E [7]): efficacious
CN(Cc1ccccc1)Cc1cc(N(C)C)c2c(c1O)C(=O)C1=C(O)[C@]3(O)C(=O)C(C(N)=O)=C(O)[C@@H](N(C)C)[C@@H]3C[C@@H]1C2 [Compound I]	1 (≈ 1.69 µM)	–	0.5 (≈ 0.846 µM)	1 (≈ 1.69 µM)	1 (≈ 1.69 µM)	–	PD50 (S. pneumoniae 700905 [3]; iv): 2.2 mg/kg; PD50 (S. pneumoniae 700905 [3]; po): 31.6 mg/kg; PD50 (S. pneumoniae 157E [4]; iv): 1 mg/kg; PD50 (S. pneumoniae 157E [4]; po): 13.4 mg/kg; oral activity in words (S. pneumoniae 157E [4]; po): exhibited oral activity
COc1ccc(-c2ccc(O)c3c2C[C@H]2C[C@H]4[C@H](N(C)C)C(O)=C(C(N)=O)C(=O)[C@@]4(O)C(O)=C2C3=O)cc1CN(C)C(C)C [Compound M]	–	0.06 (≈ 0.0991 µM)	–	–	–	0.06 (≈ 0.0991 µM)	–
CC1CN(C2CCN(Cc3cc(N(C)C)c4c(c3O)C(=O)C3=C(O)[C@]5(O)C(=O)C(C(N)=O)=C(O)[C@@H](N(C)C)[C@@H]5C[C@@H]3C4)CC2)CC(C)O1 (stereo partly shown) [Compound R]	1 (≈ 1.5 µM)	–	0.13 (≈ 0.195 µM)	1 (≈ 1.5 µM)	2 (≈ 2.99 µM)	–	–
CN(C)Cc1ccc(-c2ccc(O)c3c2C[C@H]2C[C@H]4[C@H](N(C)C)C(O)=C(C(N)=O)C(=O)[C@@]4(O)C(O)=C2C3=O)cc1 [Compound V]	–	0.06 (≈ 0.11 µM)	–	–	–	0.06 (≈ 0.11 µM)	–
COC(=O)c1ccc(CNCc2cc(N(C)C)c3c(c2O)C(=O)C2=C(O)[C@]4(O)C(=O)C(C(N)=O)=C(O)[C@H](N(C)C)[C@@H]4C[C@@H]2C3)cc1 [D]	1 (≈ 1.58 µM)	–	0.25 (≈ 0.394 µM)	1 (≈ 1.58 µM)	0.25 (≈ 0.394 µM)	–	responders at 10 mg/kg (S. pneumoniae 157E [7]; [8]): 0%; responders at 5 mg/kg (S. pneumoniae 157E [7]; [9]): 0%
CO/N=C(\C)c1cc(CNCC(C)(C)C)c(O)c2c1C[C@H]1C[C@H]3[C@H](N(C)C)C(O)=C(C(N)=O)C(=O)[C@@]3(O)C(O)=C1C2=O [E]	0.25 (≈ 0.428 µM)	–	0.06 (≈ 0.103 µM)	1 (≈ 1.71 µM)	0.25 (≈ 0.428 µM)	–	responders at 10 mg/kg (S. pneumoniae 157E [7]; [8]): 0%; responders at 5 mg/kg (S. pneumoniae 157E [7]; [9]): 40%
CN(C)[C@@H]1C(O)=C(C(N)=O)C(=O)[C@@]2(O)C(O)=C3C(=O)c4c(O)ccc(B5OC(C)(C)C(C)(C)O5)c4C[C@H]3C[C@@H]12 [F]	0.5 (≈ 0.925 µM)	–	0.25 (≈ 0.463 µM)	1 (≈ 1.85 µM)	0.5 (≈ 0.925 µM)	–	responders at 50 mg/kg (S. pneumoniae 157E [7]; [8]): 100%; responders at 5 mg/kg (S. pneumoniae 157E [7]; [9]): 100%
C=CCN(C)Cc1cc(C(C)C)c2c(c1O)C(=O)C1=C(O)[C@]3(O)C(=O)C(C(N)=O)=C(O)[C@@H](N(C)C)[C@@H]3C[C@@H]1C2 [G]	0.5 (≈ 0.927 µM)	–	0.06 (≈ 0.111 µM)	1 (≈ 1.85 µM)	0.5 (≈ 0.927 µM)	–	–
CN(C)[C@@H]1C(O)=C(C(N)=O)C(=O)[C@@]2(O)C(O)=C3C(=O)c4c(O)c(CNCCC(F)(F)F)cc(-c5ncccn5)c4C[C@H]3C[C@@H]12 [J]	0.5 (≈ 0.81 µM)	–	0.06 (≈ 0.0972 µM)	1 (≈ 1.62 µM)	0.25 (≈ 0.405 µM)	–	–
CN(Cc1ccccc1F)Cc1cc(N(C)C)c2c(c1O)C(=O)C1=C(O)[C@]3(O)C(=O)C(C(N)=O)=C(O)[C@@H](N(C)C)[C@@H]3C[C@@H]1C2 [K]	0.5 (≈ 0.821 µM)	–	0.25 (≈ 0.411 µM)	1 (≈ 1.64 µM)	1 (≈ 1.64 µM)	–	–
CN(CCC(F)(F)F)Cc1cc(N(C)C)c2c(c1O)C(=O)C1=C(O)[C@]3(O)C(=O)C(C(N)=O)=C(O)[C@@H](N(C)C)[C@@H]3C[C@@H]1C2 [L]	0.5 (≈ 0.838 µM)	–	0.75 (≈ 1.26 µM)	1 (≈ 1.68 µM)	1 (≈ 1.68 µM)	–	–
CCN(CCCC(F)(F)F)Cc1cc(N(C)C)c2c(c1O)C(=O)C1=C(O)[C@]3(O)C(=O)C(C(N)=O)=C(O)[C@@H](N(C)C)[C@@H]3C[C@@H]1C2 [N]	1 (≈ 1.6 µM)	–	0.13 (≈ 0.208 µM)	0.5 (≈ 0.8 µM)	1 (≈ 1.6 µM)	–	–
CN(C)[C@@H]1C(O)=C(C(N)=O)C(=O)[C@@]2(O)C(O)=C3C(=O)c4c(O)ccc(C(=O)CN5CCCCC5)c4C[C@H]3C[C@@H]12 [O]	–	0.06 (≈ 0.111 µM)	–	–	–	0.06 (≈ 0.111 µM)	IC50 [5]: > 32 µg/mL; IC90 [5]: > 32 µg/mL; macromolecular synthesis profile in words [6]: profile similar to class I compounds; IC50 [6]: 0.33 µg/mL (≈ 0.612 µM); IC90 [6]: 0.92 µg/mL (≈ 1.71 µM)
CN(C)[C@@H]1C(O)=C(C(N)=O)C(=O)[C@@]2(O)C(O)=C3C(=O)c4c(O)ccc(-c5cncc(CN6CCCCC6)c5)c4C[C@H]3C[C@@H]12 [P]	–	0.06 (≈ 0.102 µM)	–	–	–	0.06 (≈ 0.102 µM)	–
CC(C)N(C)Cc1ccc(-c2ccc(O)c3c2C[C@H]2C[C@H]4[C@H](N(C)C)C(O)=C(C(N)=O)C(=O)[C@@]4(O)C(O)=C2C3=O)o1 [Q]	–	0.06 (≈ 0.106 µM)	–	–	–	0.06 (≈ 0.106 µM)	–
C=CCN(C)Cc1cncc(-c2ccc(O)c3c2C[C@H]2C[C@H]4[C@@H](N(C)C)C(O)=C(C(N)=O)C(=O)[C@@]4(O)C(O)=C2C3=O)c1 [T]	–	0.06 (≈ 0.104 µM)	–	–	–	0.06 (≈ 0.104 µM)	–
CN(C)[C@@H]1C(O)=C(C(N)=O)C(=O)[C@@]2(O)C(O)=C3C(=O)c4c(O)ccc(CN5CCC(F)CC5)c4C[C@H]3C[C@@H]12 [U]	–	0.06 (≈ 0.113 µM)	–	–	–	0.06 (≈ 0.113 µM)	–
CC(C)NCc1ccc(-c2ccc(O)c3c2C[C@H]2C[C@H]4[C@H](N(C)C)C(O)=C(C(N)=O)C(=O)[C@@]4(O)C(O)=C2C3=O)cc1 [W]	–	0.06 (≈ 0.107 µM)	–	–	–	0.06 (≈ 0.107 µM)	–
COc1ccc(CN(C)C)c(-c2ccc(O)c3c2C[C@H]2C[C@H]4[C@H](N(C)C)C(O)=C(C(N)=O)C(=O)[C@@]4(O)C(O)=C2C3=O)c1 [X]	–	0.06 (≈ 0.104 µM)	–	–	–	0.06 (≈ 0.104 µM)	–
COCCNCc1ccc(-c2ccc(O)c3c2C[C@H]2C[C@H]4[C@H](N(C)C)C(O)=C(C(N)=O)C(=O)[C@@]4(O)C(O)=C2C3=O)cc1 [Y]	–	0.06 (≈ 0.104 µM)	–	–	–	0.06 (≈ 0.104 µM)	–
CN(C)[C@@H]1C(O)=C(C(N)=O)C(=O)[C@@]2(O)C(O)=C3C(=O)c4c(O)ccc(C#Cc5ccccn5)c4C[C@H]3C[C@@H]12 [Z]	0.5 (≈ 0.97 µM)	0.13 (≈ 0.252 µM)	–	–	–	–	MIC (S. pneumoniae 157E [1]): 0.06 µg/mL (≈ 0.116 µM)
